Assays:
[1] = test system: p21 induction in HCT 116 cells; experiment: p21 induction in cells (In-Cell Western, p21/GAPDH ratio); assay type: cell-based; details: Homo sapiens, HCT-116, 24 h, 24 h compound incubation, read-out: P21_EC50
In short: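 HCT 116 cells treated 24 h at 37° C with 11-point, 2-fold dilutions starting typically at 10 μM, in duplicate. Fixed cells immunostained for p21 and GAPDH; 800/700 nm ratio normalised between DMSO and reference WRN inhibitor controls as percent activation. EC50 from non-linear regression.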

[2] = biological target: T1, human Werner helicase (WRN, Uniprot Q14191, amino acids 517-1235 with L1074F point mutation; WRN-BV08) (Homo sapiens, UniProt Q14191, L1074F); experiment: WRN (BV08) ADP-Glo assay; assay type: biochemical; details: WRN-BV08 (aa 517-1235, L1074F); read-out: ADP-Glo_hWRN_IC50
T1 construct: Uniprot Q14191, amino acids 517-1235 with L1074F point mutation; 8xHis (C, cleaved yes); TEV cleavage site (ENLYFQG) (C, cleaved yes); made in house; host or cells: Sf9 insect cells (baculovirus, pFastBac)
In short: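 WRN 517-1235 (L1074F, untagged, Sf9-expressed), 0.15 nM, preincubated with compound 15 min at 25 °C, then 60 min with […] and 0.1 nM DNA duplex in Bicine pH 7.5, 1 mM MgCl2, 1% DMSO. ADP-Glo luminescence; % inhibition vs NSC-617145 control, four-parameter IC50 fit.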

T1 sequence (Q14191 with tags, fused parts or gaps L1074F): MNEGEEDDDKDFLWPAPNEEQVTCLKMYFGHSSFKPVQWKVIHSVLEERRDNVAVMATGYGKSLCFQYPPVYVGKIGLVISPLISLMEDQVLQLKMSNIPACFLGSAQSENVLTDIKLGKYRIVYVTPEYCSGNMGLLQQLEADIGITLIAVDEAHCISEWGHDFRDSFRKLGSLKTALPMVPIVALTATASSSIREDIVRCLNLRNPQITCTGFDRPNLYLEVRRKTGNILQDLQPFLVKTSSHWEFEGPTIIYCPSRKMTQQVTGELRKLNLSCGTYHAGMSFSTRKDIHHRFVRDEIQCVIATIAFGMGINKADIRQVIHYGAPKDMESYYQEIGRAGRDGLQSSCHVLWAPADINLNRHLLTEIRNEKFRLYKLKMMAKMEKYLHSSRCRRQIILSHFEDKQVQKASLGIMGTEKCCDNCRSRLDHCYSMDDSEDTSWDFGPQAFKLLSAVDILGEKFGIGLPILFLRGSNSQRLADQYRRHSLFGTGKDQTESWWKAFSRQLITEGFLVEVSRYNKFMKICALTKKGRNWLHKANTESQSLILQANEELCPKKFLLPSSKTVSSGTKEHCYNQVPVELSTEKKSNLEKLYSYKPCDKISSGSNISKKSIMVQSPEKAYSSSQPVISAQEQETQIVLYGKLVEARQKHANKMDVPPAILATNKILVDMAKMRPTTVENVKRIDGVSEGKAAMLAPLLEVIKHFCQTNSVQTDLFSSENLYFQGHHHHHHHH

| EC50 [1] [nM] | IC50 [2] [nM] | Structure (SMILES) |
| --- | --- | --- |
| 2000 to 5000 | 5 to 50 | CCc1c(N2CCN(C(=O)c3ncc4c(c3O)CCO4)CC2)c(=O)n2nc(C3=CCOCC3)nc2n1CC(=O)NC12CC(C(C)(F)F)(C1)C2 [I-7, N-(3-(1,1-difluoroethyl)bicyclo[1.1.1]pentan-1-yl)-2-(2-(3,6-dihydro-2H-pyran-4-yl)-5-ethyl-6-(4-(4-hydroxy-2,3-dihydrofuro[2,3-c]pyridine-5-carbonyl)piperazin-1-yl)-7-oxo-[1,2,4]triazolo[1,5-a]pyrimidin-4(7H)-yl)acetamide] |
| ≤ 500 | 5 to 50 | CCc1c(N2CCN(C(=O)c3ncnc(C)c3O)[C@H]3CC[C@@H]32)c(=O)n2c(=O)n(-c3ccnc(OC)c3)nc2n1CC(=O)NC12CC(C3CC3)(C1)C2 [I-209, N-(3-cyclopropylbicyclo[1.1.1]pentan-1-yl)-2-(7-ethyl-6-((1S,6S)-5-(5-hydroxy-6-methylpyrimidine-4-carbonyl)-2,5-diazabicyclo[4.2.0]octan-2-yl)-2-(2-methoxypyridin-4-yl)-3,5-dioxo-2,3-dihydro-[1,2,4]triazolo[4,3-a]pyrimidin-8(5H)-yl)acetamide] |
| 500 to 2000 | 5 to 50 | CCc1c(N2CCN(C(=O)c3ncnc(C)c3O)[C@H]3CC[C@@H]32)c(=O)c2nc(N(C)C)cnc2n1CC(=O)NC12CC(C3CCCC3)(C1)C2 [I-224, N-(3-cyclopentylbicyclo[1.1.1]pentan-1-yl)-2-(2-(dimethylamino)-6-ethyl-7-((1S,6S)-5-(5-hydroxy-6-methylpyrimidine-4-carbonyl)-2,5-diazabicyclo[4.2.0]octan-2-yl)-8-oxopyrido[2,3-b]pyrazin-5(8H)-yl)acetamide] |
| ≤ 500 | 5 to 50 | CCc1c(N2CCN(C(=O)c3c(OC)cccc3B(O)O)[C@H]3CC[C@@H]32)c(=O)c2nn(C3=CCOCC3)nc2n1CC(=O)NC12CC(C(C)C)(C1)C2 [I-204, (2-((1S,6S)-5-(2-(3,6-dihydro-2H-pyran-4-yl)-5-ethyl-4-(2-((3-isopropylbicyclo[1.1.1]pentan-1-yl)amino)-2-oxoethyl)-7-oxo-4,7-dihydro-2H-[1,2,3]triazolo[4,5-b]pyridin-6-yl)-2,5-diazabicyclo[4.2.0]octane-2-carbonyl)-3-methoxyphenyl)boronic acid] |
| 500 to 2000 | 5 to 50 | CCc1c(N2CCN(C(=O)c3c(OC)ncc(C)c3O)[C@H]3CC[C@@H]32)c(=O)c2nc(N(C)C)cnc2n1CC(=O)NC12CC(C3CC3)(C1)C2 [I-233, N-(3-cyclopropylbicyclo[1.1.1]pentan-1-yl)-2-(2-(dimethylamino)-6-ethyl-7-((1S,6S)-5-(4-hydroxy-2-methoxy-5-methylnicotinoyl)-2,5-diazabicyclo[4.2.0]octan-2-yl)-8-oxopyrido[2,3-b]pyrazin-5(8H)-yl)acetamide] |
| > 5000 | 5 to 50 | CCc1c(N2CCN(C(=O)c3ncnc(C)c3O)[C@H]3CC[C@@H]32)c(=O)c2nc(N(C)C)cnc2n1CC(=O)NC1CC2(CCCC2)C1 [I-230, 2-(2-(dimethylamino)-6-ethyl-7-((1S,6S)-5-(5-hydroxy-6-methylpyrimidine-4-carbonyl)-2,5-diazabicyclo[4.2.0]octan-2-yl)-8-oxopyrido[2,3-b]pyrazin-5(8H)-yl)-N-(spiro[3.4]octan-2-yl)acetamide] |
| 2000 to 5000 | 5 to 50 | CCc1c(N2CCN(C(=O)c3ncnc(C)c3O)CC2)c(=O)c2oc(-c3ccnc(OC)c3)nc2n1CC(=O)NC12CC(C(F)(F)F)(C1)C2 [I-17, 2-(5-ethyl-6-(4-(5-hydroxy-6-methylpyrimidine-4-carbonyl)piperazin-1-yl)-2-(2-methoxypyridin-4-yl)-7-oxooxazolo[4,5-b]pyridin-4(7H)-yl)-N-(3-(trifluoromethyl)bicyclo[1.1.1]pentan-1-yl)acetamide] |
| > 5000 | 100 to 500 | CCc1c(N2CCN(C(=O)c3ncnc(C)c3O)CC2)c(=O)c2nc(N(C)C)cnc2n1CC(=O)NC12CC(C(F)(F)F)(C1)C2 [I-1, 2-(2-(dimethylamino)-6-ethyl-7-(4-(5-hydroxy-6-methylpyrimidine-4-carbonyl)piperazin-1-yl)-8-oxopyrido[2,3-b]pyrazin-5(8H)-yl)-N-(3-(trifluoromethyl)bicyclo[1.1.1]pentan-1-yl)acetamide] |
| 2000 to 5000 | 5 to 50 | CCc1c(N2CCN(C(=O)c3c(O)ccc4ncoc34)CC2)c(=O)n2nc(-c3ccnc(OC)c3)nc2n1CC(=O)NC12COC(C(F)(F)F)(C1)C2 [I-44, 2-(5-ethyl-6-(4-(6-hydroxybenzo[d]oxazole-7-carbonyl)piperazin-1-yl)-2-(2-methoxypyridin-4-yl)-7-oxo-[1,2,4]triazolo[1,5-a]pyrimidin-4(7H)-yl)-N-(1-(trifluoromethyl)-2-oxabicyclo[2.1.1]hexan-4-yl)acetamide] |
| 500 to 2000 | 5 to 50 | CCc1c(N2CCN(C(=O)c3ncnc(C)c3O)CC2)c(=O)n2nc(C3=CCOCC3)nc2n1CC(=O)NC12CC(C(C)C)(C1)C2 [I-234, 2-(2-(3,6-dihydro-2H-pyran-4-yl)-5-ethyl-6-(4-(5-hydroxy-6-methylpyrimidine-4-carbonyl)piperazin-1-yl)-7-oxo-[1,2,4]triazolo[1,5-a]pyrimidin-4(7H)-yl)-N-(3-isopropylbicyclo[1.1.1]pentan-1-yl)acetamide] |
| 2000 to 5000 | 5 to 50 | CCc1c(N2CCN(C(=O)c3ncnc(C)c3O)CC2)c(=O)n2nc(-c3ccnc(OC)c3)nc2n1CC(=O)NC12CC(C(F)(F)F)(C1)C2 [I-4, 2-(5-ethyl-6-(4-(5-hydroxy-6-methylpyrimidine-4-carbonyl)piperazin-1-yl)-2-(2-methoxypyridin-4-yl)-7-oxo-[1,2,4]triazolo[1,5-a]pyrimidin-4(7H)-yl)-N-(3-(trifluoromethyl)bicyclo[1.1.1]pentan-1-yl)acetamide] |
| ≤ 500 | 5 to 50 | CCc1c(N2CCN(C(=O)c3ncnc(C)c3O)[C@H]3CC[C@@H]32)c(=O)c2cn(-c3ccnc(OC)c3)nc2n1CC(=O)NC12CC(C3CC3)(C1)C2 [I-212, N-(3-cyclopropylbicyclo[1.1.1]pentan-1-yl)-2-(6-ethyl-5-((1S,6S)-5-(5-hydroxy-6-methylpyrimidine-4-carbonyl)-2,5-diazabicyclo[4.2.0]octan-2-yl)-2-(2-methoxypyridin-4-yl)-4-oxo-2,4-dihydro-7H-pyrazolo[3,4-b]pyridin-7-yl)acetamide] |
| 2000 to 5000 | 5 to 50 | CCc1c(N2CCN(C(=O)c3cccc4ncoc34)CC2)c(=O)n2nc(-c3ccnc(OC)c3)nc2n1CC(=O)NC12CC(C(F)(F)F)(C1)C2 [I-231, 2-(6-(4-(benzo[d]oxazole-7-carbonyl)piperazin-1-yl)-5-ethyl-2-(2-methoxypyridin-4-yl)-7-oxo-[1,2,4]triazolo[1,5-a]pyrimidin-4(7H)-yl)-N-(3-(trifluoromethyl)bicyclo[1.1.1]pentan-1-yl)acetamide] |
| 500 to 2000 | 5 to 50 | CCc1c(N2CCN(C(=O)c3ncnc(C)c3O)CC2)c(=O)n2nc(-c3ccncc3)nc2n1CC(=O)NC12CC(C3CCC3)(C1)C2 [I-219, N-(3-cyclobutylbicyclo[1.1.1]pentan-1-yl)-2-(5-ethyl-6-(4-(5-hydroxy-6-methylpyrimidine-4-carbonyl)piperazin-1-yl)-7-oxo-2-(pyridin-4-yl)-[1,2,4]triazolo[1,5-a]pyrimidin-4(7H)-yl)acetamide] |
| ≤ 500 | 5 to 50 | CCc1c(N2CCN(C(=O)c3ncnc(C)c3O)[C@H]3CC[C@@H]32)c(=O)n2nc(-c3ccnc(OC)c3)nc2n1CC(=O)NC12CC(C3CC3)(C1)C2 [I-208, N-(3-cyclopropylbicyclo[1.1.1]pentan-1-yl)-2-(5-ethyl-6-((1S,6S)-5-(5-hydroxy-6-methylpyrimidine-4-carbonyl)-2,5-diazabicyclo[4.2.0]octan-2-yl)-2-(2-methoxypyridin-4-yl)-7-oxo-[1,2,4]triazolo[1,5-a]pyrimidin-4(7H)-yl)acetamide] |
| > 5000 | 100 to 500 | CCc1c(N2CCN(C(=O)c3c(O)ccc4ncoc34)CC2)c(=O)n2ncnc2n1CC(=O)NC12CC(C3CCC3)(C1)C2 [I-243, N-(3-cyclobutylbicyclo[1.1.1]pentan-1-yl)-2-(5-ethyl-6-(4-(6-hydroxybenzo[d]oxazole-7-carbonyl)piperazin-1-yl)-7-oxo-[1,2,4]triazolo[1,5-a]pyrimidin-4(7H)-yl)acetamide] |
| ≤ 500 | 5 to 50 | CCc1c(N2CCN(C(=O)c3c(O)ccc4nc(C)oc34)CC2)c(=O)n2nc(-c3ccnc(OC)c3)nc2n1CC(=O)NC12CC(CC)(C1)C2 [I-215, 2-(5-ethyl-6-(4-(6-hydroxy-2-methylbenzo[d]oxazole-7-carbonyl)piperazin-1-yl)-2-(2-methoxypyridin-4-yl)-7-oxo-[1,2,4]triazolo[1,5-a]pyrimidin-4(7H)-yl)-N-(3-ethylbicyclo[1.1.1]pentan-1-yl)acetamide] |
| 500 to 2000 | 5 to 50 | CCc1c(N2CCN(C(=O)c3c(O)ccc4ncoc34)[C@H]3CC[C@@H]32)c(=O)c2nc(N(C)C)cnc2n1CC(=O)NC12CC(C(C)C)(C1)C2 [I-218, 2-(2-(dimethylamino)-6-ethyl-7-((1S,6S)-5-(6-hydroxybenzo[d]oxazole-7-carbonyl)-2,5-diazabicyclo[4.2.0]octan-2-yl)-8-oxopyrido[2,3-b]pyrazin-5(8H)-yl)-N-(3-isopropylbicyclo[1.1.1]pentan-1-yl)acetamide] |

From patent US20250206738A1, “WRN INHIBITORS” (Nimbus Wadjet, Inc., priority 2023, published 2025)
